Measurements reported in US11643411B2 (priority 2015, dated 2023).
Where a name gives a salt, the structure may show the parent alone. Read-outs that look alike come from different tables or passages of the source. Marks after values point to notes of the source that are not given here.

Key:
hERG channel = target: T1, hERG channel (Homo sapiens, UniProt Q12809); experiment: hERG potassium channel inhibition test (automatic patch clamp); type: cell-based; settings: 10 μM, hERG channel-stably expressing CHO cells, tail current
T1 construct: host or cells: CHO cells
T1 sequence (Q12809 whole entry): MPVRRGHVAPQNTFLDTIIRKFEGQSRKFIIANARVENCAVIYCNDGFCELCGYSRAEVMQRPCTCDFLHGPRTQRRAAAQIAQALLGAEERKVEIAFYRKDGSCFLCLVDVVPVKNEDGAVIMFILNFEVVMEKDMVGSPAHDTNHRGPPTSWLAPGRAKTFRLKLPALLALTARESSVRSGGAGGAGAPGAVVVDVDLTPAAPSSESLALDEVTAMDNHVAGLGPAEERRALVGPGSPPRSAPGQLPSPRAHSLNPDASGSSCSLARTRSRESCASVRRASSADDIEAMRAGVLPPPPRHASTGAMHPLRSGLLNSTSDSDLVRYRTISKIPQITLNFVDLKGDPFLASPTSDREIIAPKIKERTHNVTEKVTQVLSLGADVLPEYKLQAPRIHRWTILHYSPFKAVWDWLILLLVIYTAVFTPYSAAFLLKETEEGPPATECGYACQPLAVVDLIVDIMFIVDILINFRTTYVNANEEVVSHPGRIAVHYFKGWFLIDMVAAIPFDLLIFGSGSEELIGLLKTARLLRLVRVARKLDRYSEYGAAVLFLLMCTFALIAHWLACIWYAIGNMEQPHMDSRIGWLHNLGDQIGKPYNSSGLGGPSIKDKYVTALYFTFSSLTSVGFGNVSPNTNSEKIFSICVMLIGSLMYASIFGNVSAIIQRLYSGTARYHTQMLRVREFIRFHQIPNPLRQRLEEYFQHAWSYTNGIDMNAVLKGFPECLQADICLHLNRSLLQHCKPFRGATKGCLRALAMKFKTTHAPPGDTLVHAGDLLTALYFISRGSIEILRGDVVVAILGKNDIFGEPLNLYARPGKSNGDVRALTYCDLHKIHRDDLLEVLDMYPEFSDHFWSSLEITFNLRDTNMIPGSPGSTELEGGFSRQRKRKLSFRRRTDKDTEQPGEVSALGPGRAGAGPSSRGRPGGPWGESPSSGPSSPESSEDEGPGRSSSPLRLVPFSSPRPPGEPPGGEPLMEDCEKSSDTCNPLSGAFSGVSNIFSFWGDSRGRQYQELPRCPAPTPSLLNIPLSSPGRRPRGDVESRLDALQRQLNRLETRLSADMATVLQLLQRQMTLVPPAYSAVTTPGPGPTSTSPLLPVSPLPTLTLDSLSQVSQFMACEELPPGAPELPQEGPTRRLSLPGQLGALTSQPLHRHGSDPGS
Experimental: The test was performed with Port-a-Patch automatic patch clump apparatus (Nanion Technologies) using hERG channel-stably expressing CHO cells (purchased from Channelopathy Foundation). The membrane potential of the cells was maintained at −80 mV, then there were applied a depolarization pulse at +20 mV for 1.5 seconds, and a following test pulse at −50 mV for 1.5 seconds at a frequency of 1 time per 10 seconds, and the hERG current was confirmed as a tail current induced by the test pulse. The test compound was dissolved in an extracellular fluid (137 mM NaCl, 4 mM KCl, 1.8 mM CaCl2, 1 mM MgCl2, 10 mM D(+)-glucose, 10 mM HEPES, pH 7.4), and the solution was refluxed at room temperature for 5 minutes. The inhibition ratio was obtained from the ratio of the tail current value observed after the compound was applied based on the tail current value observed before the compound was applied, which was taken as 100%.

C57BL/6N male mice = experiment: Mouse elevated plus maze test; type: in vivo; settings: subcutaneous, dose not stated (FIGS. 3 to 5)
Experimental: For the test, 5 to 6 weeks old C57BL/6N male mice were used. On a plus maze apparatus consisting of a wall-less running route (open arm, width 6 cm, length 30 cm) and a running route with a wall (closed arm, width 6 cm, length 30 cm, height of wall 15 cm), and having a height of 40 cm, a mouse was put so as to be directed to the running route with a wall, and allowed to spontaneously enter into the plus maze. Each test substance was dissolved in saline or 0.005 N HCl in saline, and subcutaneously administered on the back 30 minutes before the start of the test. At the time of the start of the test, video recording with a video camera was started, the time at which the mouse entered into the plus maze is considered to be the start of the test, and exploratory behavior was recorded for 5 minutes. On the basis of the video image, staying time in the running routes were determined, and wall-less running route staying time ratio (%) was calculated.

human opioid κ receptor = target: T2, human opioid κ receptor (Homo sapiens, UniProt P41145); experiment: cell-based
T2 construct: host or cells: CHO cells
T2 sequence (P41145 whole entry): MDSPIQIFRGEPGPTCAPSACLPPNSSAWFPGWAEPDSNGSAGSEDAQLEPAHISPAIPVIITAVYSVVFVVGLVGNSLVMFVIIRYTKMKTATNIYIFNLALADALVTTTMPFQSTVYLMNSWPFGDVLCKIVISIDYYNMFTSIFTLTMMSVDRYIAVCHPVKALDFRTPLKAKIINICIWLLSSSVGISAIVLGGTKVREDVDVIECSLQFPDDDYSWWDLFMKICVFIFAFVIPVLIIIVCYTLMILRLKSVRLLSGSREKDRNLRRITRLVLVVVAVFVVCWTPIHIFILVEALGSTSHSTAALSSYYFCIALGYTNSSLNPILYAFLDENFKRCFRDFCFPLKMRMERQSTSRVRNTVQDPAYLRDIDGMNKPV

human opioid μ receptor = target: T3, human opioid μ receptor (Homo sapiens, UniProt P35372); experiment: Opioid receptor function test (Lance Ultra cAMP Kit), μ receptor; type: cell-based
T3 construct: host or cells: CHO cells
T3 sequence (P35372 whole entry): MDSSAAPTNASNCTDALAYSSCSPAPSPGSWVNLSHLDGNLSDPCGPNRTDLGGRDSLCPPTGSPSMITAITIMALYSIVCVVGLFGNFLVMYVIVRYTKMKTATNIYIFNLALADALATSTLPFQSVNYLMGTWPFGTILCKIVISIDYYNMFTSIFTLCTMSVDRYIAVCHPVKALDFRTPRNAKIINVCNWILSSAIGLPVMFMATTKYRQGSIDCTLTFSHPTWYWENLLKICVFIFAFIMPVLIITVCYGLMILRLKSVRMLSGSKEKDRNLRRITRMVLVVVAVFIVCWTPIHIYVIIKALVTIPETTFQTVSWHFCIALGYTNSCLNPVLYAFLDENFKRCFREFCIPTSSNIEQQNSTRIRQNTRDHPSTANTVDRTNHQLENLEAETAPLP

SD male rats = experiment: Rat cerebral infarction-induced overactive bladder model (cystometry); type: in vivo
Experimental: A transient middle cerebral artery occlusion model was prepared by using 8 weeks old SD male rats under isoflurane inhalation anesthesia. On the next day, the cervix was slightly cut open again under the isoflurane inhalation anesthesia, and a catheter for administration was fixed in the jugular vein, and led to the back. A cystometry operation was also performed, and the other end of a cannula inserted into the bladder was led to the back, and connected to a cannula swivel.
On the day 4 after the cerebral ischemia operation, cystometry was performed under no anesthesia and with no restraint. Intravesical pressure was measured for the stable period, then a medium was intravenously administered, and the value of the pressure was measured over about 30 minutes as a value before test substance administration. Then, the test substance was cumulatively and intravenously administered from the lowest dose at intervals of about 30 minutes, and the value was measured for about 30 minutes after each administration. For the rats determined to show pollakiuria (urination interval was 10 minutes or shorter) in the measurement before the administration, static intravesical pressure, pressure at the time of urination, urination interval, and single urination amount were measured at each time point.

OBX rats = experiment: Hyperemotional reaction inhibition test using olfactory bulbectomized (OBX) rat; type: in vivo
Experimental: According to the method of Saitoh et al. (Saitoh A, Yamada M, Yamada M, Takahashi K, Yamaguchi K, Murasawa H, Nakatani A, Tatsumi Y, Hirose N, and Kamei J: Antidepressant-like effects of the delta-opioid receptor agonist SNC80 ((+)-4-[(alphaR)-alpha-[(2S,5R)-2,5-dimethyl-4-(2-propenyl)-1-piperazinyl]-(3-methoxyphenyl)methyl]-N,N-diethylbenzamide) in an olfactory bulbectomized rat model, Brain Res., 2008, 1208160-169), OBX rats were prepared by extracting the rat olfactory bulbs, and then breeding the rats in an isolated circumstance. Hyperemotional reaction was evaluated on the day 14 after the surgical operation and before the division into groups, and 2 hours after the administration on the days 1, 4, 7, 10, and 14 of the administration period according to the hyperemotional reaction evaluation criteria prepared by Gomita et al. (Gomita et al., Behavioral pharmacological and electroencephalographical studies of 7-chloro-1-methyl-5-phenyl-1H-1,5-benzodiazepine-2,4-(3H,5H:)-dione (Clobazam), Folia Pharmacologica Japonica, 82, 267 (1983)). The drug was subcutaneously administered once a day continuously over 14 days. As a positive control drug, fluoxetine, which is a selective serotonin reuptake inhibitor (SSRI), was used. As the solvent, a 1% cyclodextrin (CD) was used.

[1] = read-out: κ receptor Emax, starred: reaction rate at the maximum concentration (reference value)
[2] = read-out: μ receptor Emax, starred: reaction rate at the maximum concentration (reference value)

## O=C(c1ccc[nH]c1=O)N1C[C@H]2C[C@@]34CC[C@@H]1[C@@H]2[C@@]31CCN(CC2CC2)[C@@H]4Cc2ccc(O)cc21 [Example 3, 3-((1S,3aR,5aS,6R,11bR,11cS)-14-(cyclopropylmethyl)-10-hydroxy-2,3,3a,4,5,6,7,11c-octahydro-1H-6,11b-(epiminoethano)-1,5a-methanonaphtho[1,2-e]indole-3-carbonyl)pyridin-2(1H)-one]
hERG channel
  hERG channel inhibitory action: <50%
C57BL/6N male mice
  wall-less running route staying time ratio: showed a tendency of increasing

## O=C(c1cc(=O)cc[nH]1)N1C[C@H]2C[C@@]34CC[C@@H]1[C@@H]2[C@@]31CCN(CC2CC2)[C@@H]4Cc2ccc(O)cc21 [Example 14, 2-((1S,3aR,5aS,6R,11bR,11cS)-14-(cyclopropylmethyl)-10-hydroxy-2,3,3a,4,5,6,7,11c-octahydro-1H-6,11b-(epiminoethano)-1,5a-methanonaphtho[1,2-e]indole-3-carbonyl)pyridin-4(1H)-one]
Human opioid κ receptor; [1]
  Emax: 6.7%

## Cn1c(C(=O)N2C[C@H]3C[C@@]45CC[C@@H]2[C@@H]3[C@@]42CCN(CC3CC3)[C@@H]5Cc3ccc(O)cc32)cccc1=O [Example 10, 6-((1S,3aR,5aS,6R,11bR,11cS)-14-(cyclopropylmethyl)-10-hydroxy-2,3,3a,4,5,6,7,11c-octahydro-1H-6,11b-(epiminoethano)-1,5a-methanonaphtho[1,2-e]indole-3-carbonyl)-1-methylpyridin-2(1H)-one]
hERG channel
  hERG channel inhibitory action: <50%
C57BL/6N male mice
  wall-less running route staying time ratio: showed a tendency of increasing
Human opioid μ receptor; [2]
  Emax: 6%
Human opioid κ receptor; [1]
  Emax: -0.7%

## Cn1cccc(C(=O)N2C[C@H]3C[C@@]45CC[C@@H]2[C@@H]3[C@@]42CCN(CC3CC3)[C@@H]5Cc3ccc(O)cc32)c1=O [Example 6, 3-((1S,3aR,5aS,6R,11bR,11cS)-14-(cyclopropylmethyl)-10-hydroxy-2,3,3a,4,5,6,7,11c-octahydro-1H-6,11b-(epiminoethano)-1,5a-methanonaphtho[1,2-e]indole-3-carbonyl)-1-methylpyridin-2(1H)-one]
Human opioid κ receptor; [1]
  Emax: 3.2%

## O=C(c1ccc[n+]([O-])c1)N1C[C@H]2C[C@@]34CC[C@@H]1[C@@H]2[C@@]31CCN(CC2CC2)[C@@H]4Cc2ccc(O)cc21 [Example 4, 3-((1S,3aR,5aS,6R,11bR,11cS)-14-(cyclopropylmethyl)-10-hydroxy-2,3,3a,4,5,6,7,11c-octahydro-1H-6,11b-(epiminoethano)-1,5a-methanonaphtho[1,2-e]indole-3-carbonyl)pyridine 1-oxide]
Human opioid μ receptor; [2]
  Emax: 5.5%

## O=C(c1cccc[n+]1[O-])N1C[C@H]2C[C@@]34CC[C@@H]1[C@@H]2[C@@]31CCN(CC2CC2)[C@@H]4Cc2ccc(O)cc21 [Example 1, 2-((1S,3aR,5aS,6R,11bR,11cS)-14-(cyclopropylmethyl)-10-hydroxy-2,3,3a,4,5,6,7,11c-octahydro-1H-6,11b-(epiminoethano)-1,5a-methanonaphtho[1,2-e]indole-3-carbonyl)pyridine 1-oxide]
hERG channel
  hERG channel inhibitory action: <50%
Human opioid μ receptor; [2]
  Emax: 8.3%

## O=C(c1cc(=O)cco1)N1C[C@H]2C[C@@]34CC[C@@H]1[C@@H]2[C@@]31CCN(CC2CC2)[C@@H]4Cc2ccc(O)cc21 [Example 19, 2-((1S,3aR,5aS,6R,11bR,11cS)-14-(cyclopropylmethyl)-10-hydroxy-2,3,3a,4,5,6,7,11c-octahydro-1H-6,11b-(epiminoethano)-1,5a-methanonaphtho[1,2-e]indole-3-carbonyl)-4H-pyran-4-one]
Human opioid κ receptor; [1]
  Emax: 0.6%

## O=C(c1cccc(=O)[nH]1)N1C[C@H]2C[C@@]34CC[C@@H]1[C@@H]2[C@@]31CCN(CC2CC2)[C@@H]4Cc2ccc(O)cc21 [Example 7, 6-((1S,3aR,5aS,6R,11bR,11cS)-14-(cyclopropylmethyl)-10-hydroxy-2,3,3a,4,5,6,7,11c-octahydro-1H-6,11b-(epiminoethano)-1,5a-methanonaphtho[1,2-e]indole-3-carbonyl)pyridin-2(1H)-one]
hERG channel
  hERG channel inhibitory action: <50%
SD male rats; 0.01 and 0.1 mg/kg i.v.
  single urination amount (in words): dose-dependently increasing tendency
  urination interval (in words): dose-dependently increasing tendency
SD male rats; at all the doses
  pressure at the time of urination (in words): did not affect
  static intravesical pressure (in words): did not affect
OBX rats; 0.1 mg/kg s.c. once a day, on the day 7 of the administration period
  hyperemotional reactions compared with the sham surgery group: restored the condition even to a level comparable to that of the rats of the sham surgery group
OBX rats; 1 mg/kg s.c. once a day, on the day 4 of the administration period
  hyperemotional reactions compared with the sham surgery group: restored the condition even to a level comparable to that of the rats of the sham surgery group
Human opioid κ receptor; [1]
  Emax: -0.9%

## Cn1cccc(C(=O)N2C[C@H]3C[C@@]45CC[C@@H]2[C@@H]3[C@@]42CCN(CC3CC3)[C@@H]5Cc3ccc(O)cc32)c1=O [Example 31, 3-((1S,3aR,5aS,6R,11bR,11cS)-14-(cyclopropylmethyl)-10-hydroxy-2,3,3a,4,5,6,7,11c-octahydro-1H-6,11b-(epiminoethano)-1,5a-methanonaphtho[1,2-e]indole-3-carbonyl)-1-methylpyridin-2(1H)-one hydrochloride]
Human opioid κ receptor; maximum reaction not reached, at maximum concentration (10 μM), U-69593 = 100%
  Emax: 3.2* %

## O=C(c1cc[nH]c(=O)c1)N1C[C@H]2C[C@@]34CC[C@@H]1[C@@H]2[C@@]31CCN(CC2CC2)[C@@H]4Cc2ccc(O)cc21 [Example 11, 4-((1S,3aR,5aS,6R,11bR,11cS)-14-(cyclopropylmethyl)-10-hydroxy-2,3,3a,4,5,6,7,11c-octahydro-1H-6,11b-(epiminoethano)-1,5a-methanonaphtho[1,2-e]indole-3-carbonyl)pyridin-2(1H)-one]
Human opioid κ receptor; [1]
  Emax: -2.5%

## Cn1cc(C(=O)N2C[C@H]3C[C@@]45CC[C@@H]2[C@@H]3[C@@]42CCN(CC3CC3)[C@@H]5Cc3ccc(O)cc32)ccc1=O [Example 9, 5-((1S,3aR,5aS,6R,11bR,11cS)-14-(cyclopropylmethyl)-10-hydroxy-2,3,3a,4,5,6,7,11c-octahydro-1H-6,11b-(epiminoethano)-1,5a-methanonaphtho[1,2-e]indole-3-carbonyl)-1-methylpyridin-2(1H)-one]
hERG channel
  hERG channel inhibitory action: <50%
C57BL/6N male mice
  wall-less running route staying time ratio: showed a tendency of increasing
Human opioid μ receptor; ratio to maximum reaction of control drug DAMGO taken as 100%, read-out: μ receptor Emax
  Emax: 16%

## CCn1cc(C(=O)N2C[C@H]3C[C@@]45CC[C@@H]2[C@@H]3[C@@]42CCN(CC3CC3)[C@@H]5Cc3ccc(O)cc32)ccc1=O [Example 28, 5-((1S,3aR,5aS,6R,11bR,11cS)-14-(cyclopropylmethyl)-10-hydroxy-2,3,3a,4,5,6,7,11c-octahydro-1H-6,11b-(epiminoethano)-1,5a-methanonaphtho[1,2-e]indole-3-carbonyl)-1-ethylpyridin-2(1H)-one]
Human opioid κ receptor; read-out: κ receptor Emax
  Emax: 13%
